The values that follow come from US20040039062A1, “Urea, ruminally synthesizable mainly to microbial crude protein” (Agri-Nutrients Technology Group, Inc., priority 2002, published 2004).

The nature of data set [1]: Water solubility test of coated urea (5 gram sample in 200 grams distilled water at 39° C., urea dissolved after 10 hours). The data set is classed as physicochemical. As for the experimental part:
The mixture was swirled briefly only when the sample was added and at the end of 10 hours. The percent of the urea dissolved in 10 hours was measured to be 45 by weight.

The test system of data set [2] is Fresh rumen fluid. In words: In-vitro urea conversion test: ruminal synthesis of urea to microbial crude protein (MCP) in rumen fluid. Details: species or system heifer. As for the experimental part: A series of urea conversion in-vitro tests were arranged using the following materials: (1) Fresh rumen fluid withdrawn via a pump through a strainer from a heifer receiving no feed for the prior two days. (2) Simulated Saliva composition of E. I. McGougal in Biochemical Journal, Vol. 43, page 106. (3) Cellulose energy source, Whatman Chromedia Microgranular Cellulose, free from other nutrient compounds. […] The in-vitro tests were run with each sample in a 250 ml Erlenmeyer flask receiving the ingredients listed as follows: [table] The test flasks were placed in a constant temperature bath operating at 39° C. Carbon dioxide was used to displace the air in the flasks. Samples amounting to 10 grams were withdrawn on an accurate time schedule with the air in the sample container replaced by carbon dioxide. The samples were immediately treated with 1 percent mercuric chloride to terminate microbial activity in the samples. The samples were analyzed for total nitrogen, ammonia nitrogen, and […] by difference.

On to `NC(N)=O` [Test No. 6, urea], for which, in data set [1], the “urea water solubilities at 39° C. (in words)” value is “high”. In addition, the “synthesis efficiencies to MCP (in words)” value in data set [2] (after 8 hours) is “low”. In addition, the “Urea Synthesized to MCP” value in data set [2] (rumen fluid, 8 hours) turned out to be 3.6%.
